# Assay results taken from US6555692B1, “Preparation and use of bifunctional molecules having DNA sequence binding specificity” (California Institute of Technology, priority 1996, dated 2003).
# Tests used:
# [1] = tested on: 5′-AACCAAGTCTTGGTA-3′; experiment: Association constants, recognition of 15 base pairs; details: for Specificity Center mismatch: match vs 5′-AACCAACTGTTGGTA-3′; for Specificity Edge mismatch: match vs 5′-AACCAAGTCTTGCGA-3′; for Ka 5′-AACCAAGTCTTGGTA-3′: Table 7, C3-OH polyamides, match site; for Specificity 5′-AACCAACTGTTGGTA-3′: Table 7, center mismatch; for Specificity 5′-AACCAAGTCTTGCGA-3′: Table 7, edge mismatch
# [2] = tested on: 5 to 10 base pair sites based on a 5′-TGACA-3′ core sequence; experiment: Footprint titration of three- to eight-ring polyamide dimers (Table 2); format: binding; details: 22° C., pH 7.0; for association constant: mean of at least three footprint titrations
# Text: To determine the effect of polyamide length on binding site size, binding affinity, and sequence specificity, a series of six polyamides containing three to eight rings was synthesized. (Kelly, et al. Proc. Natl. Acad. Sci. U.S.A. 93, 6981-6985 (1996).) The series is based on ImPyPy-Dp with pyrrolecarboxamide moieties added sequentially to the C-termini to afford ImPyPyPy-Dp, ImPyPyPyPy-Dp, ImPyPyPyPyPy-Dp, ImPyPyPyPyPyPy-Dp, and ImPyPyPyPyPyPyPy-Dp which are designed to bind 5 to 10 base pair sites, respectively as side-by-side antiparallel dimers. DNA binding sites are based on a 5′-TGACA-3′ core sequence and contain sequential A,T inserts in the center of the binding site that will be recognized by the additional pyrrole carboxamides.
# [3] = Table 6, ImImPy-γ-PyPyPy-X-ImPyPy-β-Dp
# [4] = Table 5, ImPyPy-X-ImImPy-γ-PyPyPy-β-Dp, 24° C., pH 7.0
compound,measurement,setting,value
"CN(C)CCCNC(=O)CCNC(=O)c1cc(NC(=O)c2cc(NC(=O)c3nc(NC(=O)CCCCCCNC(=O)c4cc(NC(=O)c5cc(NC(=O)c6cc(NC(=O)CCCNC(=O)c7cc(NC(=O)c8nc(NC(=O)c9nccn9C)cn8C)cn7C)cn6C)cn5C)cn4C)cn3C)cn2C)cn1C [ImImPy-γ-PyPyPy-C7-ImPyPy-β-Dp, ImImPy-γ-PyPyPy-X-ImPyPy-β-Dp]",Ka Match,[1]; [3],1e+09 M⁻¹
same,Specificity Center mismatch,[1]; Table 6,1
same,Specificity Edge mismatch,[1]; Table 6,1
"CN(C)CCCNC(=O)CCNC(=O)c1cc(NC(=O)c2cc(NC(=O)c3nc(NC(=O)CCCCCNC(=O)c4cc(NC(=O)c5cc(NC(=O)c6cc(NC(=O)CCCNC(=O)c7cc(NC(=O)c8nc(NC(=O)c9nccn9C)cn8C)cn7C)cn6C)cn5C)cn4C)cn3C)cn2C)cn1C [ImImPy-γ-PyPyPy-C6-ImPyPy-β-Dp, ImImPy-γ-PyPyPy-X-ImPyPy-β-Dp]",Ka Match,[1]; [3],2e+08 M⁻¹
same,Specificity Center mismatch,[1]; Table 6,1
same,Specificity Edge mismatch,[1]; Table 6,2
"CN(C)CCCNC(=O)CCNC(=O)c1cc(NC(=O)c2cc(NC(=O)c3cc(NC(=O)CCCNC(=O)c4cc(NC(=O)c5nc(NC(=O)c6nc(NC(=O)CCCCCNC(=O)c7cc(NC(=O)c8cc(NC(=O)c9nccn9C)cn8C)cn7C)cn6C)cn5C)cn4C)cn3C)cn2C)cn1C [ImPyPy-C6-ImImPy-γ-PyPyPy-β-Dp, ImPyPy-X-ImImPy-γ-PyPyPy-β-Dp]",Ka Match,[1]; [4],2e+08 M⁻¹
same,Specificity Center mismatch,[1]; Table 5,12
same,Specificity Edge mismatch,[1]; Table 5,15
ImPyPyPyPy-Dp,specificity (ratio of match site affinity to affinity of the single base pair mismatch site),[2],5.7-fold
same,association constant,[2],4.5e+07 M⁻¹
"CN(C)CCCNC(=O)CCNC(=O)c1cc(NC(=O)c2cc(NC(=O)c3cc(NC(=O)CCCNC(=O)c4cc(NC(=O)c5nc(NC(=O)c6nc(NC(=O)CCCCNC(=O)CCNC(=O)c7cc(NC(=O)c8cc(NC(=O)c9nccn9C)cn8C)cn7C)cn6C)cn5C)cn4C)cn3C)cn2C)cn1C [ImPyPy-β-C5-ImImPy-γ-PyPyPy-β-Dp, ImPyPy-X-ImImPy-γ-PyPyPy-β-Dp]",Ka Match,[1]; [4],1e+08 M⁻¹
same,Specificity Center mismatch,[1]; Table 5,2
same,Specificity Edge mismatch,[1]; Table 5,2
ImPyPyPyPyPy-Dp,specificity (ratio of match site affinity to affinity of the single base pair mismatch site),[2],2.7-fold
same,association constant,[2],5.3e+07 M⁻¹
Cn1cc(NC(=O)c2cc(NC(=O)c3cc(NC(=O)CCCNC(=O)c4cc(NC(=O)c5nc(NC(=O)c6nc(NC(=O)CCNC(=O)CCNC(=O)c7cc(NC(=O)c8cc(NC(=O)c9nccn9C)cn8C)cn7C)cn6C)cn5C)cn4C)cn3C)cn2C)cc1C(=O)NCCCO [ImPyPy-β-β-ImImPy-γ-PyPyPy-C3—OH],Ka 5′-AACCAAGTCTTGGTA-3′,[1],1 × 10^8
same,Specificity 5′-AACCAACTGTTGGTA-3′,[1],3
same,Specificity 5′-AACCAAGTCTTGCGA-3′,[1],3
Cn1cc(NC(=O)c2cc(NC(=O)c3cc(NC(=O)CCCNC(=O)c4cc(NC(=O)c5nc(NC(=O)c6nc(NC(=O)CCCCCNC(=O)c7cc(NC(=O)c8cc(NC(=O)c9nccn9C)cn8C)cn7C)cn6C)cn5C)cn4C)cn3C)cn2C)cc1C(=O)NCCCO [ImPyPy-C6-ImImPy-γ-PyPyPy-C3—OH],Ka 5′-AACCAAGTCTTGGTA-3′,[1],3 × 10^7
same,Specificity 5′-AACCAACTGTTGGTA-3′,[1],2
same,Specificity 5′-AACCAAGTCTTGCGA-3′,[1],2
CN(C)CCCNC(=O)c1cc(NC(=O)c2cc(NC(=O)c3cc(NC(=O)c4nccn4C)cn3C)cn2C)cn1C [ImPyPyPy-Dp],specificity (ratio of match site affinity to affinity of the single base pair mismatch site),[2],5.3-fold
same,association constant,[2],8.5e+06 M⁻¹
"CN(C)CCCNC(=O)CCNC(=O)c1cc(NC(=O)c2cc(NC(=O)c3cc(NC(=O)CCCNC(=O)c4cc(NC(=O)c5nc(NC(=O)c6nc(NC(=O)CCCNC(=O)c7cc(NC(=O)c8cc(NC(=O)c9nccn9C)cn8C)cn7C)cn6C)cn5C)cn4C)cn3C)cn2C)cn1C [ImPyPy-γ-ImImPy-γ-PyPyPy-β-Dp, ImPyPy-X-ImImPy-γ-PyPyPy-β-Dp]",Ka Match,[1]; [4],1e+07 M⁻¹
same,Specificity Center mismatch,[1]; Table 5,1
same,Specificity Edge mismatch,[1]; Table 5,1
"CN(C)CCCNC(=O)CCNC(=O)c1cc(NC(=O)c2cc(NC(=O)c3nc(NC(=O)CCCCNC(=O)c4cc(NC(=O)c5cc(NC(=O)c6cc(NC(=O)CCCNC(=O)c7cc(NC(=O)c8nc(NC(=O)c9nccn9C)cn8C)cn7C)cn6C)cn5C)cn4C)cn3C)cn2C)cn1C [ImImPy-γ-PyPyPy-C5-ImPyPy-β-Dp, ImImPy-γ-PyPyPy-X-ImPyPy-β-Dp]",Ka Match,[1]; [3],1e+09 M⁻¹
same,Specificity Center mismatch,[1]; Table 6,2
same,Specificity Edge mismatch,[1]; Table 6,2
Cn1cc(NC(=O)c2cc(NC(=O)c3cc(NC(=O)CCCNC(=O)c4cc(NC(=O)c5nc(NC(=O)c6nc(NC(=O)CCCCNC(=O)c7cc(NC(=O)c8cc(NC(=O)c9nccn9C)cn8C)cn7C)cn6C)cn5C)cn4C)cn3C)cn2C)cc1C(=O)NCCCO [ImPyPy-C5-ImImPy-γ-PyPyPy-C3—OH],Ka 5′-AACCAAGTCTTGGTA-3′,[1],3 × 10^7
same,Specificity 5′-AACCAACTGTTGGTA-3′,[1],>3
same,Specificity 5′-AACCAAGTCTTGCGA-3′,[1],>3
"CN(C)CCCNC(=O)CCNC(=O)c1cc(NC(=O)c2cc(NC(=O)c3cc(NC(=O)CCCNC(=O)c4cc(NC(=O)c5nc(NC(=O)c6nc(NC(=O)CCCCNC(=O)c7cc(NC(=O)c8cc(NC(=O)c9nccn9C)cn8C)cn7C)cn6C)cn5C)cn4C)cn3C)cn2C)cn1C [ImPyPy-C5-ImImPy-γ-PyPyPy-β-Dp, ImPyPy-X-ImImPy-γ-PyPyPy-β-Dp]",Ka Match,[1]; [4],4e+08 M⁻¹
same,Specificity Center mismatch,[1]; Table 5,11
same,Specificity Edge mismatch,[1]; Table 5,19
"CN(C)CCCNC(=O)CCNC(=O)c1cc(NC(=O)c2cc(NC(=O)c3cc(NC(=O)CCCNC(=O)c4cc(NC(=O)c5nc(NC(=O)c6nc(NC(=O)CCCCCCCNC(=O)c7cc(NC(=O)c8cc(NC(=O)c9nccn9C)cn8C)cn7C)cn6C)cn5C)cn4C)cn3C)cn2C)cn1C [ImPyPy-C8-ImImPy-γ-PyPyPy-β-Dp, ImPyPy-X-ImImPy-γ-PyPyPy-β-Dp]",Ka Match,[1]; [4],2e+08 M⁻¹
same,Specificity Center mismatch,[1]; Table 5,10
same,Specificity Edge mismatch,[1]; Table 5,10
"CN(C)CCCNC(=O)CCNC(=O)c1cc(NC(=O)c2cc(NC(=O)c3cc(NC(=O)CCCNC(=O)c4cc(NC(=O)c5nc(NC(=O)c6nc(NC(=O)CCNC(=O)CCNC(=O)c7cc(NC(=O)c8cc(NC(=O)c9nccn9C)cn8C)cn7C)cn6C)cn5C)cn4C)cn3C)cn2C)cn1C [ImPyPy-β-β-ImImPy-γ-PyPyPy-β-Dp, ImPyPy-X-ImImPy-γ-PyPyPy-β-Dp]",Ka Match,[1]; [4],3e+08 M⁻¹
same,Specificity Center mismatch,[1]; Table 5,2
same,Specificity Edge mismatch,[1]; Table 5,2
ImPyPyPyPyPyPyPy-Dp,specificity (ratio of match site affinity to affinity of the single base pair mismatch site),[2],1-fold
same,association constant,[2],<2e+07 M⁻¹
"CN(C)CCCNC(=O)CCNC(=O)c1cc(NC(=O)c2cc(NC(=O)c3nc(NC(=O)CCNC(=O)CCNC(=O)c4cc(NC(=O)c5cc(NC(=O)c6cc(NC(=O)CCCNC(=O)c7cc(NC(=O)c8nc(NC(=O)c9nccn9C)cn8C)cn7C)cn6C)cn5C)cn4C)cn3C)cn2C)cn1C [ImImPy-γ-PyPyPy-β-β-ImPyPy-β-Dp, ImImPy-γ-PyPyPy-X-ImPyPy-β-Dp]",Ka Match,[1]; [3],1e+10 M⁻¹
same,Specificity Center mismatch,[1]; Table 6,1
same,Specificity Edge mismatch,[1]; Table 6,1
CN(C)CCCNC(=O)c1cc(NC(=O)c2cc(NC(=O)c3nccn3C)cn2C)cn1C [ImPyPy-Dp],specificity (ratio of match site affinity to affinity of the single base pair mismatch site),[2],6.5-fold
same,association constant,[2],130000 M⁻¹
"CN(C)CCCNC(=O)CCNC(=O)c1cc(NC(=O)c2cc(NC(=O)c3cc(NC(=O)CCCNC(=O)c4cc(NC(=O)c5nc(NC(=O)c6nc(NC(=O)CCCCCCNC(=O)c7cc(NC(=O)c8cc(NC(=O)c9nccn9C)cn8C)cn7C)cn6C)cn5C)cn4C)cn3C)cn2C)cn1C [ImPyPy-C7-ImImPy-γ-PyPyPy-β-Dp, ImPyPy-X-ImImPy-γ-PyPyPy-β-Dp]",Ka Match,[1]; [4],2e+08 M⁻¹
same,Specificity Center mismatch,[1]; Table 5,2
same,Specificity Edge mismatch,[1]; Table 5,2
